Assay: Accelerated stability of treprostinil monohydrate at 25, 30 and 40° C. (Lot #01M07033)
Assay type: physicochemical
Experimental: III. Accelerated Stability Data at 30 and 40° C. (Lot #01M07033).
In the present experiment, 500 mg Treprostinil monohydrate samples were stored in Nalgene 125 ml, HDPE bottles. The experimental procedure used in this experiment was the same as the described above procedure for lot D-1007-089.

CCCCC[C@H](O)CC[C@@H]1[C@H]2Cc3cccc(OCC(=O)O)c3C[C@H]2C[C@H]1O [TREPROSTINIL Lot# D-1007-089, treprostinil monohydrate] showed a 3AU90 (3-Months, 25° C./60% RH) of less than 0.05%, a 750W93 (3-Months, 25° C./60% RH) of 0.07% and a 751W93 (3-Months, 25° C./60% RH) of less than 0.05%. The “Impurity 1 (RRT: 0.58)” value (3-Months, 25° C./60% RH) was 0.05%, the “Total impurities” value (3-Months, 25° C./60% RH) was 0.4% and the “UT-15 Assay” value (3-Months, 25° C./60% RH) was 99.5%. The “UT-15 Ethyl Ester” value (3-Months, 25° C./60% RH) was 0.2%, the “Water, KF” value (3-Months, 25° C./60% RH) was 4.8% and the 3AU90 (3-Months, 30° C./65% RH) was less than 0.05%. The 750W93 (3-Months, 30° C./65% RH) was 0.07%, the 751W93 (3-Months, 30° C./65% RH) was less than 0.05% and the “Impurity 1 (RRT: 0.58)” value (3-Months, 30° C./65% RH) was 0.05%. The “Total impurities” value (3-Months, 30° C./65% RH) was 0.4%, the “UT-15 Assay” value (3-Months, 30° C./65% RH) was 99.5% and the “UT-15 Ethyl Ester” value (3-Months, 30° C./65% RH) was 0.2%. For the same compound, the “Water, KF” value (3-Months, 30° C./65% RH) was 4.8%, the 3AU90 (3-Months, 40 C./75% RH) was less than 0.05% and the 750W93 (3-Months, 40 C./75% RH) was 0.08%. The 751W93 (3-Months, 40 C./75% RH) was less than 0.05%, the “Impurity 1 (RRT: 0.58)” value (3-Months, 40 C./75% RH) was 0.05% and the “Total impurities” value (3-Months, 40 C./75% RH) was 0.4%. The “UT-15 Assay” value (3-Months, 40 C./75% RH) was 99.4%, the “UT-15 Ethyl Ester” value (3-Months, 40 C./75% RH) was 0.2% and the “Water, KF” value (3-Months, 40 C./75% RH) was 4.8%. For the same compound, the 3AU90 (6-Months, 25° C./60% RH) was 0.06%, the 750W93 (6-Months, 25° C./60% RH) was 0.07% and the 751W93 (6-Months, 25° C./60% RH) was less than 0.05%. The “Total impurities” value (6-Months, 25° C./60% RH) was 0.4%, the “UT-15 Assay” value (6-Months, 25° C./60% RH) was 99.0% and the “UT-15 Ethyl Ester” value (6-Months, 25° C./60% RH) was 0.2%. For the same compound, the “Water, KF” value (6-Months, 25° C./60% RH) was 4.7%, the 3AU90 (6-Months, 30° C./65% RH) was 0.06% and the 750W93 (6-Months, 30° C./65% RH) was 0.07%. For the same compound, the 751W93 (6-Months, 30° C./65% RH) was less than 0.05%, the “Total impurities” value (6-Months, 30° C./65% RH) was 0.4% and the “UT-15 Assay” value (6-Months, 30° C./65% RH) was 99.1%. For the same compound, the “UT-15 Ethyl Ester” value (6-Months, 30° C./65% RH) was 0.2%, the “Water, KF” value (6-Months, 30° C./65% RH) was 4.7% and the 3AU90 (6-Months, 40 C./75% RH) was 0.07%. The 750W93 (6-Months, 40 C./75% RH) was 0.09%, the 751W93 (6-Months, 40 C./75% RH) was 0.05% and the “Total impurities” value (6-Months, 40 C./75% RH) was 0.4%. For the same compound, the “UT-15 Assay” value (6-Months, 40 C./75% RH) was 99.7%, the “UT-15 Ethyl Ester” value (6-Months, 40 C./75% RH) was 0.2% and the “Water, KF” value (6-Months, 40 C./75% RH) was 4.7%. For the same compound, the 3AU90 (12-Months, 25° C./60% RH) was less than 0.05%, the 750W93 (12-Months, 25° C./60% RH) was 0.08% and the 751W93 (12-Months, 25° C./60% RH) was less than 0.05%. For the same compound, the “Impurity 1 (RRT: 0.58)” value (12-Months, 25° C./60% RH) was 0.06%, the “Total impurities” value (12-Months, 25° C./60% RH) was 0.4% and the “UT-15 Assay” value (12-Months, 25° C./60% RH) was 99.8%. The “UT-15 Ethyl Ester” value (12-Months, 25° C./60% RH) was 0.2%, the “Water, KF” value (12-Months, 25° C./60% RH) was 4.7% and the 3AU90 (12-Months, 40 C./75% RH) was less than 0.05%. For the same compound, the 750W93 (12-Months, 40 C./75% RH) was 0.09%, the 751W93 (12-Months, 40 C./75% RH) was 0.05% and the “Impurity 1 (RRT: 0.58)” value (12-Months, 40 C./75% RH) was 0.05%. The “Total impurities” value (12-Months, 40 C./75% RH) was 0.4%, the “UT-15 Assay” value (12-Months, 40 C./75% RH) was 98.6% and the “UT-15 Ethyl Ester” value (12-Months, 40 C./75% RH) was 0.2%. For the same compound, the “Water, KF” value (12-Months, 40 C./75% RH) was 4.8%, the 3AU90 (Initial) was 0.1% and the 750W93 (Initial) was 0.08%. The 751W93 (Initial) was less than 0.05%, the “Total impurities” value (Initial) was 0.4% and the “UT-15 Assay” value (Initial) was 98.7%. The “UT-15 Ethyl Ester” value (Initial) was 0.2% and the “Water, KF” value (Initial) was 4.5%.

— patent publication US8350079B2, “Treprostinil formulation” (United Therapeutics Corporation, priority 2008, dated 2013)
